According to ChEMBL document CHEMBL1201862, “PubChem BioAssay data set” (2004):
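Briefly, cells in 96-well plates were exposed to five compound concentrations for 48 h, and endpoints were estimated by linear interpolation. Here, GI50 denotes the concentration required for 50% inhibition of growth.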 The source made the active and inactive calls. Rule as the data show it: active = GI50 up to about 1.1 µM and inactive = higher.

Assays:
Experiment in all cases: NCI anticancer screen, dose series, 48 h
CAKI-1 = system: CAKI-1
CCRF-CEM = system: CCRF-CEM
COLO 205 = system: COLO 205
HCT-15 = system: HCT-15
HL-60 = system: HL-60
HOP-92 = system: HOP-92
Hs-578T = system: Hs-578T
K562 = system: K562
KM12 = system: KM12
M14 = system: M14
MDA-MB-231 = system: MDA-MB-231
NCI-H226 = system: NCI-H226
OVCAR-8 = system: OVCAR-8
SF-268 = system: SF-268
SNB-19 = system: SNB-19
SW-620 = system: SW-620
MDA-N = system: MDA-N
MOLT-4 = system: MOLT-4
OVCAR-5 = system: OVCAR-5

| Structure (SMILES) | GI50 (CAKI-1) | GI50 (CCRF-CEM) | GI50 (COLO 205) | GI50 (HCT-15) | GI50 (HL-60) | GI50 (HOP-92) | GI50 (Hs-578T) | GI50 (K562) | GI50 (KM12) | GI50 (M14) | GI50 (MDA-MB-231) | GI50 (NCI-H226) | GI50 (OVCAR-8) | GI50 (SF-268) | GI50 (SNB-19) | GI50 (SW-620) | GI50 (MDA-N) | GI50 (MOLT-4) | GI50 (OVCAR-5) |
| --- | --- | --- | --- | --- | --- | --- | --- | --- | --- | --- | --- | --- | --- | --- | --- | --- | --- | --- | --- |
| O=C(NC1CCCCC1)c1cc2ccccc2cc1O | 47 µM (inactive) | 38.9 µM (inactive) | 53.1 µM (inactive) | 26.4 µM | 22.6 µM (inactive) | 22.3 µM (inactive) | 36.2 µM (inactive) | 27.7 µM (inactive) | 34.2 µM (inactive) | 21.9 µM (inactive) | 61 µM (inactive) | 17.3 µM (inactive) | 26.2 µM (inactive) | 46.1 µM (inactive) | 31.1 µM (inactive) | 35.2 µM (inactive) | – | – | – |
| CC1=[N+]([O-])C(C)(C)N(O)C1(C)C | – | > 100 µM (inactive) | > 100 µM (inactive) | > 100 µM | > 100 µM (inactive) | > 100 µM (inactive) | – | > 100 µM (inactive) | > 100 µM (inactive) | > 100 µM (inactive) | > 100 µM (inactive) | > 100 µM (inactive) | > 100 µM (inactive) | > 100 µM (inactive) | > 100 µM (inactive) | > 100 µM (inactive) | > 100 µM (inactive) | > 100 µM (inactive) | > 100 µM (inactive) |
| Cc1ccccc1NC(=O)C(=O)Cc1nc2ccccc2s1 | > 100 µM (inactive) | > 100 µM (inactive) | > 100 µM (inactive) | > 100 µM | > 100 µM (inactive) | > 100 µM (inactive) | – | > 100 µM (inactive) | > 100 µM (inactive) | > 100 µM (inactive) | – | > 100 µM (inactive) | > 100 µM (inactive) | > 100 µM (inactive) | > 100 µM (inactive) | > 100 µM (inactive) | – | > 100 µM (inactive) | > 100 µM (inactive) |
| Cc1cc(S(=O)(=O)n2ccnc2O)c(SCCCN(C)C)cc1Cl | > 100 µM (inactive) | > 100 µM (inactive) | > 100 µM (inactive) | > 100 µM | – | – | > 100 µM (inactive) | > 100 µM (inactive) | > 100 µM (inactive) | > 100 µM (inactive) | > 100 µM (inactive) | > 100 µM (inactive) | > 100 µM (inactive) | > 100 µM (inactive) | > 100 µM (inactive) | > 100 µM (inactive) | > 100 µM (inactive) | > 100 µM (inactive) | > 100 µM (inactive) |
| O=C(Nn1c(-c2ccccc2)nc2ccccc2c1=O)c1cccc([N+](=O)[O-])c1 | – | 52.5 µM (inactive) | 54.3 µM (inactive) | 55.7 µM | > 100 µM (inactive) | 35.2 µM (inactive) | 95.3 µM (inactive) | > 100 µM (inactive) | > 100 µM (inactive) | > 100 µM (inactive) | – | 52.8 µM (inactive) | > 100 µM (inactive) | > 100 µM (inactive) | 61.1 µM (inactive) | > 100 µM (inactive) | > 100 µM (inactive) | 39.9 µM (inactive) | > 100 µM (inactive) |
| CC(=O)N1N=C(c2ccccc2Nc2ccccc2C2=NN(C(C)=O)C(c3ccccc3)O2)OC1c1ccccc1 (centres undefined) | – | – | 18.6 µM (inactive) | 44.8 µM | – | 93.8 µM (inactive) | – | 30.7 µM (inactive) | – | 56.1 µM (inactive) | > 100 µM (inactive) | > 100 µM (inactive) | 71.6 µM (inactive) | – | > 100 µM (inactive) | 99.8 µM (inactive) | 29 µM (inactive) | 4.76 µM (inactive) | > 100 µM (inactive) |
| N[C@@H]1c2c(Br)sc(Br)c2C(=O)[C@H]1Br | 27.3 µM (inactive) | 2.02 µM (inactive) | 1.88 µM (inactive) | 25.1 µM | 2.42 µM (inactive) | 17.5 µM (inactive) | 54.6 µM (inactive) | > 28.3 µM (inactive) | 26.4 µM (inactive) | 20.6 µM (inactive) | 23.6 µM (inactive) | > 42.3 µM (inactive) | 20.5 µM (inactive) | 31.2 µM (inactive) | 45.9 µM (inactive) | 18.7 µM (inactive) | – | 4.69 µM (inactive) | > 82.4 µM (inactive) |
| O=C1NC(N/N=C/c2ccccc2)=N/C1=C\c1ccco1 | 37.3 µM (inactive) | 25.6 µM (inactive) | 57.4 µM (inactive) | 40.6 µM | > 100 µM (inactive) | 11.3 µM (inactive) | 31.5 µM (inactive) | – | 47.6 µM (inactive) | 46.2 µM (inactive) | 65.2 µM (inactive) | 35.5 µM (inactive) | 16.1 µM (inactive) | 24.5 µM (inactive) | 36.5 µM (inactive) | 46 µM (inactive) | – | 37.1 µM (inactive) | > 100 µM (inactive) |
| O=C(O)c1nc2ccccc2nc1Nc1ccc(Cl)c(Cl)c1 | 33 µM (inactive) | 17.8 µM (inactive) | 23.5 µM (inactive) | 13.1 µM | 25.8 µM (inactive) | 16.1 µM (inactive) | – | 21.7 µM (inactive) | 10.8 µM (inactive) | 24.5 µM (inactive) | 31.3 µM (inactive) | 43.4 µM (inactive) | 41.1 µM (inactive) | 17.9 µM (inactive) | 24.9 µM (inactive) | 31.7 µM (inactive) | 24.9 µM (inactive) | 15.8 µM (inactive) | 39.6 µM (inactive) |
